pIC50: −log10 of the molar value. Activity calls are given as the source filed them. No cut-off for these calls is given here.
Tests used:
MB49 [1] = assay: Antitumor immunity against mouse MB49 cells implanted in male C57BL/6 mouse assessed as increase in infiltration of CD3+ cells at 1 mg/kg,iv bid measured after 14 days immunofluorescence based analysis; assay type: functional, organism-based; conditions: time 14.0 day
T-24 [2] = assay: Induction in apoptosis in human T24 cells assessed as necrotic cells at 0.13 uM incubated for 48 hrs by Annexin V-FITC staining based flow cytometry analysis (reference value: 1.14 %); assay type: functional
[3] = Antitumor activity against mouse MB49 cells implanted in male C57BL/6 mouse model assessed as tumor growth inhibition at 1 mg/kg,iv bid measured after 14 days relative to control; assay type: functional; conditions: MB49, 336 h, time 14 day, read-out: TGI
[4] = Antitumor activity against mouse MB49 cells implanted in male C57BL/6 mouse model assessed as reduction in tumor weight at 1 mg/kg,iv bid measured after 14 days relative to control; assay type: functional; set-up: scale not given: the % may be the effect or the level left; conditions: time 14 day
HT-29 = assay: Antiproliferative activity against human HT-29 cells assessed as inhibition of cell proliferation measured after 72 hrs by MTT assay; assay type: functional, cell-based; conditions: HT-29, 72 h
T-24 [5] = assay: Induction of cell cycle arrest in human T24 cells assessed as accumulation of cells at G1 phase at 0.25 uM incubated for 24 hrs by RNase A/Propidium Iodide staining based flow cytometry analysis (reference value: 43.80 %); assay type: functional
[6] = Downregulation of BMX expression level in human T24 cells at 0.5 uM incubated for 24 hrs by Western blotting analysis relative to control; assay type: functional, T-24
T-24 [7] = assay: Induction of cell cycle arrest in human T24 cells assessed as accumulation of cells at S phase at 0.25 uM incubated for 24 hrs by RNase A/Propidium Iodide staining based flow cytometry analysis (reference value: 31.27 %); assay type: functional
T-24 [8] = assay: Induction of cell cycle arrest in human T24 cells assessed as accumulation of cells at G2/M phase at 0.25 uM incubated for 24 hrs by RNase A/Propidium Iodide staining based flow cytometry analysis (reference value: 22.67 %); assay type: functional
Bel-7402 = assay: Antiproliferative activity against human Bel-7402 cells assessed as inhibition of cell proliferation measured after 72 hrs by MTT assay; assay type: functional, cell-based; conditions: Bel-7402, 72 h
MB49 [9] = assay: Antitumor immunity against mouse MB49 cells implanted in male C57BL/6 mouse assessed as increase in infiltration of CD8+T cells at 1 mg/kg,iv bid measured after 14 days immunofluorescence based analysis; assay type: functional, organism-based; conditions: time 14.0 day
T-24 [10] = assay: Induction in apoptosis in human T24 cells assessed as viable cells at 0.13 uM incubated for 48 hrs by Annexin V-FITC staining based flow cytometry analysis (reference value: 90.44 %); assay type: functional; conditions: read-out: Activity
[11] = target: T1, Cytoplasmic tyrosine-protein kinase BMX (Homo sapiens) (UniProt P51813); assay: Induction of thermal stabilization of BMX in human T24 cells at 48 to 68 degreeC at 0.13 to 0.50 uM incubated for 6 hrs by CETSA analysis; assay type: cell-based; conditions: dose 0.13-0.5 µM
T1 sequence (whole entry): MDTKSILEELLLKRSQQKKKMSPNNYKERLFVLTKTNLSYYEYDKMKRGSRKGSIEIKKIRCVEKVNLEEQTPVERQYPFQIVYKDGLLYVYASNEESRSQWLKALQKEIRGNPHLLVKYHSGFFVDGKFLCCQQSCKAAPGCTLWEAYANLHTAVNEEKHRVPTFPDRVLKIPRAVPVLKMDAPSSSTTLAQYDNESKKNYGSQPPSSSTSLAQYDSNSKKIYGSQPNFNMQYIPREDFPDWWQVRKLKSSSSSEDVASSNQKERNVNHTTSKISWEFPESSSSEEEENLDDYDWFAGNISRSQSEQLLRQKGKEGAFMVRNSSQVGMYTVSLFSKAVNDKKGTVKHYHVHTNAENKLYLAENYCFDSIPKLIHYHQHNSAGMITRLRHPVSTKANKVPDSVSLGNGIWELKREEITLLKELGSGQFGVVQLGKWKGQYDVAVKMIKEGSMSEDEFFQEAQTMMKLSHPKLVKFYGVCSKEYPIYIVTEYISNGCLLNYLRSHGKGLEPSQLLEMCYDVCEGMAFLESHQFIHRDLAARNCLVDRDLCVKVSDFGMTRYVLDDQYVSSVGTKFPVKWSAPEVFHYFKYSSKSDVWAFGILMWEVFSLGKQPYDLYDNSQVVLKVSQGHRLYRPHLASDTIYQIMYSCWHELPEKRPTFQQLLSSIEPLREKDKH

T-24 [12] = assay: Inhibition of cell migration in human T24 cells at 0.125 uM incubated for 24 hrs by scratch assay (reference value: 88 %); assay type: functional; conditions: T-24, 24 h
T-24 [13] = assay: Antiproliferative activity against human T24 cells assessed as inhibition of cell proliferation at 0.25 uM incubated for 72 hrs by MTT assay relative to control; assay type: functional
T-24 [14] = assay: Induction in apoptosis in human T24 cells assessed as total apoptotic cells at 0.125 to 0.50 uM incubated for 48 hrs by Annexin V-FITC staining based flow cytometry analysis (reference value: 8 %); assay type: functional; conditions: dose 0.125-0.5 µM, at 0.125 to 0.5 µM
T-24 [15] = assay: Inhibition of colony formation in human T24 cells at 0.25 uM measured after 10 days by crystal violet staining based analysis; assay type: functional, cell-based; conditions: time 10.0 day
[16] = MRT(0 to t) in Sprague-Dawley rat at 5 mg/kg, iv measured upto 24 hrs; assay type: ADME, organism-based; conditions: in vivo
[17] = target: T1, Cytoplasmic tyrosine-protein kinase BMX (Homo sapiens); assay: Inhibition of BMX phosphorylation in human T24 cells incubated for 24 hrs by Western blotting analysis; assay type: cell-based; conditions: dose 0.13-0.5 µM
[18] = Toxicity in ICR mouse assessed as body weight change at 688 mg/kg, IG administered once for 14 days; assay type: organism-based; conditions: in vivo, po, 336 h, time 14 day
[19] = Solubility of the compound in aqueous saline; assay type: physicochemical
[20] = Antitumor activity against mouse MB49 cells implanted in male C57BL/6 mouse assessed as reduction in CD133 expression level at 1 mg/kg,iv bid measured after 14 days by immunohistochemical analysis relative to control; assay type: functional; set-up: scale not given: the % may be the effect or the level left; conditions: time 14 day
[21] = Downregulation of STAT3 expression level in human T24 cells at 0.25 uM incubated for 24 hrs by Western blotting analysis relative to control; assay type: functional, T-24
T-24 [22] = assay: Induction of cell cycle arrest in human T24 cells assessed as accumulation of cells at G1 phase at 0.50 uM incubated for 24 hrs by RNase A/Propidium Iodide staining based flow cytometry analysis (reference value: 43.80 %); assay type: functional; conditions: dose 0.5 µM
T-24 [23] = assay: Induction in apoptosis in human T24 cells assessed as early apoptotic cells at 0.25 uM incubated for 48 hrs by Annexin V-FITC staining based flow cytometry analysis (reference value: 3.64 %); assay type: functional
T-24 [24] = assay: Induction in apoptosis in human T24 cells assessed as necrotic cells at 0.5 uM incubated for 48 hrs by Annexin V-FITC staining based flow cytometry analysis (reference value: 1.14 %); assay type: functional
[25] = Antiproliferative activity against […] MB49 cells assessed as inhibition of cell proliferation measured after 72 hrs by MTT assay; assay type: functional, cell-based; conditions: MB49, 72 h
T-24 [26] = assay: Induction of cell cycle arrest in human T24 cells assessed as accumulation of cells at G2/M phase at 0.13 uM incubated for 24 hrs by RNase A/Propidium Iodide staining based flow cytometry analysis (reference value: 22.67 %); assay type: functional

C[C@H]1CCC/C=C/[C@@H]2C[C@H](O)C[C@H]2[C@H](OC(=O)c2cccnc2)/C=C/C(=O)O1
Activity (MB49 [1]): Active | Activity (T-24 [2]): 0.91% | inhibition in vivo at 1 mg/kg [3]: 51% | Activity [4]: 48% | pIC50 (HT-29): 6.39 | Activity (T-24 [5]): 48.88% | Activity [6]: 35% | Activity (T-24 [7]): 29.56% | Activity (T-24 [8]): 19.43% | pIC50 (Bel-7402): 6.34 | Activity (MB49 [9]): Active | viability at 0.13 µM (T-24 [10]): 89.2% | Activity [11]: Active | wound closure at 0.125 µM (T-24 [12]): 44% | inhibition at 0.25 µM (T-24 [13]): 54% | Activity (T-24 [14]): 31% | inhibition (T-24 [15]): Active; Entirely Suppressed Clone Formation Was Observed | MRT last at 24 h [16]: 8.4 min | inhibition [17]: Dose-dependent-effect | Activity [18]: Non-toxic | solubility [19]: < 1000 µg/mL | Activity [20]: 61% | Activity [21]: 53% | Activity (T-24 [22]): 63.82% | Activity (T-24 [23]): 6.75% | Activity (T-24 [24]): 3.49% | pIC50 [25]: 5.32 | Activity (T-24 [26]): 22.53%

Reference: ChEMBL document CHEMBL6103652, “Niacin Ester Derivative of Brefeldin A as a Potential Dual-Target Arf1/BMX Inhibitor for Bladder Cancer” (J Nat Prod, 2025)
